As usually defined, the melting point is the temperature of the solid-liquid transition.

One data set concerns HRV-29. In words: Rhinovirus cytopathic effect reduction in HeLa-Ohio cells (MTT test). The note with it: HRV-29, HeLa-Ohio cells. Type of data set: cell-based.
Data set [1] has as its system Polio 1 (Brunhilde strain). Type of data set: cell-based. The note with it: Polio 1, plaque reduction.
Another data set has as its system HRV-9. In words: Rhinovirus cytopathic effect reduction in HeLa-Ohio cells (MTT test). The class given is cell-based. The note with it: HRV-9, HeLa-Ohio cells. A general note: Protection from cytopathic effect is a common read-out in antiviral testing.
The test system of another data set is HeLa cells. Kind of data set: Cytotoxicity, HeLa cell proliferation (microscopy, MTT test). The class given is cell-based. The note with it: 48-72 h incubation at 37° C. As for the experimental part: (§1) The cytotoxicity of each substance was determined by direct observation under microscope, and mitochondrial dehydrogenases activities were assayed according to the MTT test (F. Denizot et al., Immunol. Methods, 1986, 89, 271).
(§2) The concentration of compound which, after 48-72 h of incubation at 37° C., inhibited by 50% the cell proliferation was defined as cytotoxic dose 50% (CD50).

The next data set has as its system HRV-2. In words: Rhinovirus cytopathic effect reduction in HeLa-Ohio cells (MTT test). Type of data set: cell-based. The following applies: HRV-2, HeLa-Ohio cells.
For a further data set, the system named is HRV-1B. Described as above. Type of data set: cell-based.
For a further data set, the system named is HRV-15. The description is as above. The class given is cell-based. The following applies: HRV-15, HeLa-Ohio cells.
The subject of data set [2] is Measles (Edmonston strain). Kind of data set: Antiviral activity, direct inhibition of plaque number. Type of data set: cell-based. The following applies: Measles morbillivirus, read-out: Concentration inhibiting by 100% viral replication.
For data set [3], the system named is Coxsackie B1 (ATCC: VR-28). The description is as above. The class given is cell-based. The following applies: Coxsackie B1, plaque reduction; read-out: Concentration inhibiting by 100% viral replication.
The test system of a further data set is ECHO 9 (ATCC: VR-133). Described as above. Type of data set: cell-based. The note with it: ECHO 9, plaque reduction; read-out: Concentration inhibiting by 100% viral replication.
The next data set has as its system HRV-86. Kind of data set: Rhinovirus cytopathic effect reduction in HeLa-Ohio cells (MTT test). Type of data set: cell-based. The note with it: Enterovirus, HRV86; HRV-86, HeLa-Ohio cells; read-out: Concentration inhibiting by 100% viral replication.
For another data set, the system named is HRV-89. The description is as above. The following applies: HRV-89, HeLa-Ohio cells. The class given is cell-based.
The next data set deals with HRV-70. The data set is described as above. The class given is cell-based. The following applies: Enterovirus, HRV70; HRV-70, HeLa-Ohio cells; read-out: Concentration inhibiting by 100% viral replication.
A further data set relates to HEp2 cells. Kind of data set: Cytotoxicity, HEp2 cell proliferation (microscopy, MTT test). Type of data set: cell-based. The following applies: 48-72 h incubation at 37° C. As for the experimental part:
as §1, §2
For orientation: Formazan colour is commonly taken as a measure of viable cells.

The subject of a further data set is HRV-14. Kind of data set: Rhinovirus cytopathic effect reduction in HeLa-Ohio cells (MTT test). Type of data set: cell-based. The following applies: HRV-14, HeLa-Ohio cells.

With `CSc1noc(-c2ccc(OCCc3ccccc3)cc2)c1C#N` [ON-6, 3-Methylthio-5-[4-(2-phenyl-1-ethoxy)-phenyl]-4-isoxazolecarbonitrile], the “Concentration inhibiting by 100% viral replication” value is 2 µM with HRV-29; 0.2 µM in data set [1]; 8 µM in the data set on HRV-9; 4 µM in the data set on HRV-2; 5 µM with HRV-1B; 6 µM in the data set with HRV-15. The “Concentration inhibiting by 100% viral replication” value with HRV-89 amounted to 2 µM. For the same molecule, in the data set with HeLa cells, the “Concentration inhibiting by 50% HeLa cell proliferation: CD50” value is above 20 µM. For the same molecule, the IC100 worked out at 1 µM in data set [2]; 10 µM in data set [3]; 0.2 µM in the data set with ECHO 9 (ATCC: VR-133); 6 µM with HRV-86; 10 µM in the data set with HRV-70. Moreover, the “Concentration inhibiting by 50% HEp2 cell proliferation: CD50” value with HEp2 cells was above 20 µM.
Molecule `CSc1noc(-c2ccc(OCCCc3ccccc3)cc2)c1C#N` [ON-7, 3-Methylthio-5-[4-(3-phenyl-1-propoxy)-phenyl]-4-isoxazolecarbonitrile] registered a melting point of 99 to 100 °C. The “Concentration inhibiting by 100% viral replication” value in the data set on HRV-29 is 5 µM. The “Concentration inhibiting by 100% viral replication” value in data set [1] is 0.4 µM. In the data set with HeLa cells, the “Concentration inhibiting by 50% HeLa cell proliferation: CD50” value was above 25 µM. The “Concentration inhibiting by 100% viral replication” value in the data set with HRV-1B came out at 5 µM. Besides, the IC100 in data set [2] was found to be 10 µM. For the same molecule, the IC100 in data set [3] stood at 0.6 µM. Besides, the IC100 in the data set on ECHO 9 (ATCC: VR-133) was 0.2 µM. The IC100 in the data set on HRV-86 came out at 5 µM. The “Concentration inhibiting by 100% viral replication” value in the data set with HRV-89 was determined as 5 µM. For the same molecule, the IC100 with HRV-70 came out at 5 µM. Also, the “Concentration inhibiting by 50% HEp2 cell proliferation: CD50” value with HEp2 cells was above 25 µM.
`CSc1noc(-c2ccc(OCCOc3ccccc3)cc2)c1C#N` [ON-8, 3-Methylthio-5-[4-(2-phenoxy-1-ethoxy)-phenyl]-4-isoxazolecarbonitrile] gave a melting point of 128 to 131 °C. Also, the “Concentration inhibiting by 100% viral replication” value in data set [1] was found to be 10 µM. Besides, the “Concentration inhibiting by 50% HeLa cell proliferation: CD50” value in the data set on HeLa cells was above 25 µM. The “Concentration inhibiting by 100% viral replication” value in the data set with HRV-1B stood at 5 µM. In addition, the IC100 in [3] stood at 10 µM. Besides, the IC100 with ECHO 9 (ATCC: VR-133) amounted to 0.2 µM. Further, the IC100 in the data set on HRV-86 was 5 µM. The “Concentration inhibiting by 100% viral replication” value in the data set with HRV-89 came to 5 µM. The IC100 with HRV-70 is 5 µM. Also, the “Concentration inhibiting by 50% HEp2 cell proliferation: CD50” value in the data set on HEp2 cells was above 25 µM.
Turning to `CSc1noc(-c2ccc(OCCCOc3ccccc3)cc2)c1C#N` [ON-9, 3-Methylthio-5-[4-(3-phenoxy-1-propoxy)-phenyl]-4-isoxazolecarbonitrile], the melting point lay within 121 to 123 °C. In addition, the “Concentration inhibiting by 50% HeLa cell proliferation: CD50” value in the data set with HeLa cells is 20 µM. Also, the “Concentration inhibiting by 100% viral replication” value in the data set with HRV-1B stood at 10 µM. The IC100 in data set [2] stood at 10 µM. The IC100 in data set [3] was 1 µM. Besides, the IC100 with ECHO 9 (ATCC: VR-133) worked out at 0.1 µM. The IC100 in the data set with HRV-86 is 5 µM. The “Concentration inhibiting by 100% viral replication” value in the data set with HRV-89 worked out at 5 µM. Moreover, the IC100 in the data set on HRV-70 stood at 5 µM. Further, the “Concentration inhibiting by 50% HEp2 cell proliferation: CD50” value in the data set on HEp2 cells came out at 20 µM.
Molecule `CSc1noc(-c2ccc(OCCCCOc3ccccc3)cc2)c1C#N` [ON-10, 3-Methylthio-5-[4-(4-phenoxy-1-butoxy)-phenyl]-4-isoxazolecarbonitrile] yielded a melting point of 113 to 114 °C. Further, the “Concentration inhibiting by 100% viral replication” value with HRV-29 was determined as 1 µM. Further, the “Concentration inhibiting by 50% HeLa cell proliferation: CD50” value in the data set on HeLa cells came to 10 µM. Further, in the data set with HRV-1B, the “Concentration inhibiting by 100% viral replication” value was determined as 2 µM. Besides, the “Concentration inhibiting by 100% viral replication” value in the data set with HRV-14 amounted to 1 µM. Moreover, the IC100 in data set [2] worked out at 0.02 µM. In addition, the IC100 in data set [3] turned out to be 0.02 µM. Moreover, the IC100 with ECHO 9 (ATCC: VR-133) came to 1 µM. Moreover, the IC100 with HRV-86 is 1 µM. For the same molecule, the “Concentration inhibiting by 100% viral replication” value with HRV-89 stood at 1 µM. Also, the IC100 in the data set with HRV-70 stood at 1 µM. Further, in the data set with HEp2 cells, the “Concentration inhibiting by 50% HEp2 cell proliferation: CD50” value stood at 10 µM.
The molecule `CSc1noc(-c2ccc(OCCOc3ccc([N+](=O)[O-])cc3)cc2)c1C#N` [ON-11, 3-Methylthio-5-[4-[2-(4-nitrophenoxy)ethoxy]phenyl]-4-isoxazolecarbonitrile] gave a melting point of 170 to 171 °C. For the same molecule, in the data set with HeLa cells, the “Concentration inhibiting by 50% HeLa cell proliferation: CD50” value turned out to be 10 µM. Besides, the IC100 in data set [2] stood at 10 µM. The IC100 in data set [3] was determined as 10 µM. The IC100 in the data set on ECHO 9 (ATCC: VR-133) was found to be 4 µM. Also, the IC100 in the data set on HRV-86 amounted to 2 µM. Further, the IC100 in the data set with HRV-70 was found to be 8 µM. Further, the “Concentration inhibiting by 50% HEp2 cell proliferation: CD50” value with HEp2 cells worked out at 25 µM.
For the molecule `CSc1noc(-c2ccc(OCCOc3ccc(C)cc3)cc2)c1C#N` [ON-12, 3-Methylthio-5-[4-[2-(4-methylphenoxy)ethoxy]phenyl]-4-isoxazolecarbonitrile], the melting point was 139 to 140 °C. Besides, the “Concentration inhibiting by 100% viral replication” value in data set [1] was 1 µM. In addition, the “Concentration inhibiting by 50% HeLa cell proliferation: CD50” value with HeLa cells is above 25 µM. In addition, the IC100 in [2] is 10 µM. Further, the IC100 in data set [3] was 10 µM. Also, in the data set with ECHO 9 (ATCC: VR-133), the IC100 was determined as 0.06 µM. Moreover, in the data set with HRV-86, the IC100 amounted to 5 µM. Also, the “Concentration inhibiting by 100% viral replication” value with HRV-89 was found to be 5 µM. Besides, the IC100 with HRV-70 was 5 µM. Besides, the “Concentration inhibiting by 50% HEp2 cell proliferation: CD50” value in the data set with HEp2 cells was above 25 µM.
Turning to `CCOC(=O)c1ccc(OCCOc2ccc(-c3onc(SC)c3C#N)cc2)cc1` [ON-13, Ethyl-4-[[2-[4-(3-methylthio-4-cyano-5-isoxazolyl)-phenoxy]-ethyl]-oxy]benzoate], the melting point is 162 to 164 °C. Also, the “Concentration inhibiting by 100% viral replication” value in data set [1] amounted to 10 µM. In addition, in the data set with HeLa cells, the “Concentration inhibiting by 50% HeLa cell proliferation: CD50” value was 10 µM. For the same molecule, the “Concentration inhibiting by 100% viral replication” value in the data set on HRV-14 was found to be 2 µM. Moreover, the IC100 in data set [2] is 0.2 µM. The IC100 in data set [3] is 0.1 µM. Moreover, in the data set on HRV-86, the IC100 was 1 µM. Also, in the data set on HRV-70, the IC100 is 1 µM. In addition, the “Concentration inhibiting by 50% HEp2 cell proliferation: CD50” value with HEp2 cells was determined as 25 µM.
`CSc1noc(-c2ccc(OCCOc3ccc(Br)cc3)cc2)c1C#N` [ON-14, 3-Methylthio-5-[4-[2-(4-bromophenoxy)ethoxy]phenyl]-4-isoxazolecarbonitrile] yielded a melting point of 156 to 157 °C. Also, in [1], the “Concentration inhibiting by 100% viral replication” value is 1 µM. The “Concentration inhibiting by 50% HeLa cell proliferation: CD50” value in the data set on HeLa cells was 10 µM. Further, the “Concentration inhibiting by 100% viral replication” value with HRV-14 was found to be 2 µM. In addition, in data set [2], the IC100 was 0.2 µM. In addition, the IC100 in data set [3] turned out to be 0.06 µM. For the same molecule, the IC100 in the data set with ECHO 9 (ATCC: VR-133) was 0.06 µM. Further, in the data set on HRV-86, the IC100 was found to be 2 µM. Also, in the data set on HRV-89, the “Concentration inhibiting by 100% viral replication” value amounted to 2 µM. Moreover, the IC100 with HRV-70 was found to be 2 µM. In addition, the “Concentration inhibiting by 50% HEp2 cell proliferation: CD50” value in the data set on HEp2 cells was above 25 µM.

Source of the values: US6414004B1 (priority 1998, dated 2002).
